The results in this text go back to a melting point compilation (Tetko et al.).

Broadly, the melting point is the temperature of the solid-liquid transition. With `O=C(O)CSc1cccc(Br)c1`, the melting point was in the range of 79 to 81 °C.

`CC(=O)NC(C(=O)O)C1CCCC1` (configuration not stated): the melting point lay in the range of 172 to 174 °C.

In turn, `COc1ccc(-c2csc(N)n2)cc1F` gave a melting point of 185 to 187 °C.

`Nc1cc(F)cc(N2CCOCC2)c1`: the melting point is 91 to 93 °C.

Compound `CCOc1cc(C=O)ccc1OC(F)F` gave a melting point of 30 to 32 °C.

Consider `COCCOC(=O)c1c(C)[nH]c(C(=O)O)c1C`, for which the melting point lay in the range of 177 to 179 °C.

In the case of `O=Cc1cn(-c2cccc(Cl)c2Cl)nn1`, the melting point lay within 139 to 141 °C.

Compound `CCCn1c(=O)n(C)c(=O)c2c(S)nc(C(C)C)nc21` came in with a melting point of 204 to 206 °C.

`CS(=O)Cc1cc(N)ccc1Cl` (configuration not stated): the melting point lay in the range of 200 to 202 °C.

Compound `CC(=O)c1ccc(C)c([N+](=O)[O-])c1` had a melting point of 59 to 62 °C.

As to `O=C(O)CNC(=O)c1ccc(F)c(F)c1`, the melting point lay within 180 to 182 °C.

`CC(=O)c1c(C)[nH]c2ccccc12`: the melting point lay within 195 to 197 °C.

Regarding `Cc1ccc(-c2ccccc2C(=O)O)cc1`, the melting point fell in the range of 146 to 148 °C.

As to `Nc1ccc(-n2ccnc2)cc1`, the melting point lay within 143 to 147 °C.

In the case of `CN(C)S(=O)(=O)c1ccc(N)nc1`, the melting point was in the range of 150 to 152 °C.

The compound `CCOC(=O)C(=O)c1ccc2c(c1)OCCO2` returned a melting point of 65 to 67 °C.

`Cc1cc(Br)cc(C)c1C#N` came in with a melting point of 68 to 70 °C.

Compound `O=C(O)c1ccc(Nc2ccc(F)c(F)c2)c([N+](=O)[O-])c1` showed a melting point of 237 to 239 °C.

Compound `Cc1nc(-c2ccccc2F)sc1C(C)O` (configuration not stated) showed a melting point of 79 to 81 °C.

`COc1cc(C(=O)O)on1` showed a melting point of 145 to 147 °C.

Consider `NNC(=O)N1CCOCC1`, for which the melting point is 121 to 123 °C.

`CC(C)(CCC(=O)O)NC(=O)OCC1c2ccccc2-c2ccccc21` returned a melting point of 119 to 121 °C.

In turn, `CN(C)C(=S)Oc1cccc(C=O)c1` displayed a melting point of 65 to 67 °C.

In turn, `COc1ccc(C(=O)O)cc1S(=O)(=O)Cc1cc(C)no1` showed a melting point of 217 to 219 °C.

In the case of `CCCC(=O)N1CCCCC1C(=O)O` (configuration not stated), the melting point was in the range of 63 to 65 °C.

`Sc1nnc(-c2ccco2)n1-c1ccccc1` had a melting point of 121 to 123 °C.

The compound `NC(=O)Cn1ccc([N+](=O)[O-])n1` showed a melting point of 159 to 161 °C.

`O=C(c1ccc(O)cc1)N1CCCC1`: the melting point was in the range of 168 to 170 °C.

`Cc1ccc(-n2c(C)ccc2C)cc1N` showed a melting point of 83 to 85 °C.

Compound `Cc1ccc([N+](=O)[O-])c(C)c1N` registered a melting point of 80 to 82 °C.

Take `[N-]=[N+]=Nc1cccc2cccnc12`: the melting point was 42 to 44 °C.

`Cc1cc(C(=O)O)ncn1` displayed a melting point of 129 to 131 °C.

Compound `C#CC1CCCN(C(=O)OC(C)(C)C)C1` (configuration not stated) gave a melting point of 67 to 69 °C.

The compound `Cc1noc(-c2ccc(N)c(C)c2)n1` had a melting point of 161 to 163 °C.

On to `COc1ccc(S(=O)(=O)N2CCCCCC2)cc1C(=O)O`, for which the melting point was in the range of 114 to 116 °C.

`CS(=O)(=O)c1ccc(C(N)=S)cc1` displayed a melting point of 216 to 218 °C.

The compound `CC(=O)CCCCCCC(=O)O` returned a melting point of 38 to 40 °C.

Consider `O=C(O)CSc1ccccc1[N+](=O)[O-]`, for which the melting point fell in the range of 166 to 168 °C.

`O=C(C(=O)N1CCOCC1)N1CCNCC1` had a melting point of 127 to 129 °C.

As for `NC(=O)c1ccc(I)cc1`, the melting point lay within 216 to 218 °C.

As for `Cc1cc(C)nc(NCc2cccc(C(=O)O)c2)n1`, the melting point fell in the range of 224 to 226 °C.

In turn, `COc1cccc(-c2cc(N)n(-c3ccc(C)cc3)n2)c1` came in with a melting point of 109 to 111 °C.

For the compound `Cc1noc2ncc(C(=O)O)cc12`, the melting point lay within 229 to 231 °C.

Compound `O=C(O)Cc1csc(-c2ccc(O)cc2)n1` registered a melting point of 97 to 99 °C.

The compound `CN1CC(=O)N(c2cccc([N+](=O)[O-])c2)C1=O` yielded a melting point of 144 to 146 °C.

Take `O=C(O)c1cccc(N2C(=O)CCC2=O)c1`: the melting point is 237 to 239 °C.

On to `O=CN1CCN(S(=O)(=O)Cl)CC1`, for which the melting point is 103 to 105 °C.

Compound `Cc1cnc(=S)[nH]c1` displayed a melting point of 239 to 241 °C.

Regarding `CC(C)(C)c1ccc(Cn2nccc2N)cc1`, the melting point is below 17 °C.

For the compound `O=C(NCCN1CCOCC1)C1CCNCC1`, the melting point lay in the range of 127 to 129 °C.

Regarding `Cc1ccc(CC(=O)O)cc1O`, the melting point lay within 105 to 107 °C.

Consider `CCCOc1ccc2c(c1)OCC(C(=O)O)=C2`, for which the melting point was 178 to 180 °C.

Compound `C#CCN1C(=O)C=CC1=O` returned a melting point of 46 to 48 °C.

Consider `Cc1cc(Br)ccc1OCc1ccccc1`, for which the melting point was in the range of 56 to 58 °C.

Compound `Cc1nn(-c2ccccc2)c2nc(Cl)c(C=O)cc12` came in with a melting point of 189 to 191 °C.

The compound `O=C(c1cccnc1Cl)N1CCCCC1` registered a melting point of 67 to 69 °C.

Regarding `Cc1nc(Cl)c2c3c(sc2n1)CC(C)CC3` (configuration not stated), the melting point was in the range of 89 to 91 °C.

As for `O=Cc1cnn(CC(F)(F)F)c1`, the melting point lay in the range of 56 to 58 °C.

The compound `CN1CCN(C(N)=S)CC1` came in with a melting point of 179 to 181 °C.

Turning to `O=C(O)c1ccc(-c2nc3ccccc3s2)s1`, the melting point lay in the range of 254 to 256 °C.

In turn, `NS(=O)(=O)c1cc(C(=O)O)cc2c1CCC2` showed a melting point of 299 to 301 °C.

As to `COc1ccc(C(=O)NNC(=O)CCl)cc1OC`, the melting point fell in the range of 173 to 175 °C.

`CC(C)NS(=O)(=O)Cc1ccc(C#N)cc1` showed a melting point of 158 to 160 °C.

In turn, `Cc1[nH]c2c(Cl)cccc2c1C=O` came in with a melting point of 229 to 231 °C.

For `O=C(CCl)Nc1ccc(Br)cc1F`, the melting point fell in the range of 133 to 135 °C.

On to `O=C(c1cnc(Cl)c(Cl)c1)N1CCOCC1`, for which the melting point is 78 to 80 °C.

With `CC1CCC2C(=O)N(C)C(=O)C2C1C(=O)O` (configuration not stated), the melting point is 151 to 153 °C.

In turn, `COc1ccc(S(=O)(=O)Cl)c2ccccc12` returned a melting point of 95 to 97 °C.

For `O=Cc1ncc(-c2cccc(Br)c2)[nH]1`, the melting point lay in the range of 209 to 211 °C.

Regarding `Oc1ccnc2c(OC(F)(F)F)cccc12`, the melting point was in the range of 145 to 147 °C.

Compound `COc1cc(C(=O)O)ccc1OCC(N)=O` came in with a melting point of 257 to 259 °C.

`COC(=O)COc1cc(N)c(Cl)cc1C` returned a melting point of 88 to 90 °C.

Compound `COc1ccc(S(N)(=O)=O)cc1C(=O)O` yielded a melting point of 224 to 226 °C.

`C#Cc1ccc(C(=O)O)cn1`: the melting point lay within 129 to 131 °C.

Consider `O=C(O)CSCc1cc(-c2cccs2)on1`, for which the melting point fell in the range of 113 to 115 °C.

`O=C(O)Cc1cccc(OCc2ccccn2)c1` gave a melting point of 123 to 125 °C.

For `COC(=O)c1ccc2[nH]cc(C=O)c2c1`, the melting point lay within 230 to 232 °C.

As for `Nc1ccc(Oc2ccc(F)cc2)c2ccncc12`, the melting point was 149 to 151 °C.

For the compound `Nc1ccn(-c2ccc(Cl)cc2Cl)n1`, the melting point is 114 to 116 °C.

`Cc1c(C(=O)O)sc2nc3n(c(=O)c12)CCCCC3` registered a melting point of 253 to 255 °C.

`CN1C(=O)CC(C(=O)O)C1c1cccs1` (configuration not stated) showed a melting point of 139 to 141 °C.

In turn, `Cc1sc(N)c(C(=O)O)c1C` registered a melting point of 120 to 122 °C.

Regarding `NCc1ccc(N2CCOC2=O)cc1`, the melting point fell in the range of 94 to 96 °C.

`Cc1cc(N)ccc1C(N)=O` gave a melting point of 154 to 156 °C.

On to `CC1Cc2c(Br)cccc2C(=O)N1` (configuration not stated), for which the melting point fell in the range of 135 to 137 °C.

`O=C(OCc1ccccc1)N1CCCC1CS(=O)(=O)Cl` (configuration not stated) showed a melting point of 60 to 62 °C.

For `CSc1nc2cnccc2o1`, the melting point lay in the range of 85 to 87 °C.

On to `NNc1nc2cc(F)c(F)cc2[nH]1`, for which the melting point fell in the range of 221 to 223 °C.

Take `O=C(O)c1ccc(N2CCCc3ccccc32)cc1`: the melting point was 214 to 216 °C.

`CC(C)(C(N)=O)c1ccc(N)cc1` registered a melting point of 122 to 124 °C.

The compound `CC(Cl)c1nnc(-c2ccc(F)cc2)o1` (configuration not stated) had a melting point of 67 to 69 °C.

On to `NC(CC(=O)N1CCCCC1)=NO`, for which the melting point is 179 to 181 °C.

The compound `CC(Oc1ccc(Cl)cc1[N+](=O)[O-])C(=O)O` (configuration not stated) had a melting point of 119 to 121 °C.

On to `O=S(=O)(c1ccc(Cl)c(Cl)c1)N1CCNCC1`, for which the melting point lay in the range of 125 to 127 °C.

Compound `CCOC(=O)c1ccc(-n2ccnc2)c(N)c1` showed a melting point of 89 to 93 °C.

`Clc1cc2nc[nH]c2nc1Cl` registered a melting point of 119 to 121 °C.

`CCNC(=O)c1cc(Cl)ccc1N` displayed a melting point of 122 to 124 °C.

Turning to `Nc1ccn(-c2ncccc2F)n1`, the melting point lay in the range of 89 to 91 °C.

On to `CCOC(=O)C(=O)c1c(-c2ccc(C)cc2)nc2ccccn12`, for which the melting point was 116 to 118 °C.

Compound `CC(O)Cc1ccccc1S(C)(=O)=O` (configuration not stated) came in with a melting point of 55 to 57 °C.

The compound `CN(C)C(=O)COc1ccccc1C(=O)O` returned a melting point of 127 to 129 °C.

Compound `NC(=O)C=C1CCCC1` registered a melting point of 141 to 143 °C.

In turn, `O=C(O)C1CC(=O)N(c2nccs2)C1` (configuration not stated) had a melting point of 184 to 186 °C.

`O=C(c1cccnc1)c1ccc(F)cc1F` returned a melting point of 54 to 56 °C.

In turn, `NC(=O)CNC(=O)c1cccc(N)c1` had a melting point of 170 to 172 °C.

As for `CC(C)(C)OC(=O)NN1CC(C(=O)O)CC1=O` (configuration not stated), the melting point lay within 169 to 171 °C.

Regarding `O=C(O)CN1C(=O)c2ccc(Br)cc2C1=O`, the melting point is 204 to 206 °C.

As to `CCCCOc1cc(C=O)ccc1OC`, the melting point lay in the range of 39 to 41 °C.

Regarding `Sc1ncc(-c2ccccc2)n1-c1ccccc1`, the melting point was in the range of 250 to 252 °C.

`NNc1cccnc1Cl` showed a melting point of 149 to 151 °C.

With `CC(=O)NC(Cc1c[nH]cn1)C(N)=O` (configuration not stated), the melting point was 241 to 243 °C.

`Nc1ccnn1Cc1ccncc1` had a melting point of 219 to 221 °C.

For `O=C(O)c1ccc(-n2cccc2)nc1`, the melting point fell in the range of 259 to 261 °C.

`FC(F)(F)Oc1cccc2c(Cl)ccnc12` showed a melting point of 51 to 53 °C.

For `NNC(=O)c1cc(-c2ccc(Cl)cc2)nc2ccccc12`, the melting point was 238 to 240 °C.

For `Cc1cc2occ(CC(=O)O)c2cc1C`, the melting point was 133 to 135 °C.

Compound `Cc1noc(C(F)(F)F)c1C(=O)O` had a melting point of 140 to 142 °C.

Consider `Nc1nonc1-c1ccc(F)cc1`, for which the melting point is 125 to 127 °C.

Take `CNC(=O)c1cccc(C(=O)O)c1`: the melting point is 232 to 234 °C.

Consider `C#Cc1ccc(C(=O)O)nc1`, for which the melting point fell in the range of 181 to 183 °C.

For the compound `COCCOc1ccc(Cl)cc1S(=O)(=O)Cl`, the melting point lay within 38 to 40 °C.

As to `Cc1ccc(S(=O)(=O)N(C)C)cc1C(=O)O`, the melting point was in the range of 173 to 175 °C.
